Data reported in patent publication US11566039B2, “Lincosamide antibiotics and uses thereof” (President and Fellows of Harvard College, priority 2017, dated 2023).
Values after ≈ are worked out from the molar mass of the structure shown. Like-named read-outs stand apart in the source and are kept apart here.

Tests used:
Format in all cases: cell-based
[1] = tested on: E. faecalis ATCC 29212; test: MIC against E. faecalis ATCC 29212
[2] = tested on: S. aureus ATCC 29213; test: MIC against S. aureus ATCC 29213
[3] = tested on: E. coli ATCC 25922; test: MIC against E. coli ATCC 25922
[4] = tested on: H. influenzae ATCC 49247; test: MIC against H. influenzae ATCC 49247
[5] = tested on: E. coli MP-74 LptD mutant; test: MIC against E. coli MP-74 LptD mutant
[6] = tested on: K. pneumoniae ATCC 10031; test: MIC against K. pneumoniae ATCC 10031
[7] = tested on: S. pyogenes ATCC 19615; test: MIC against S. pyogenes ATCC 19615
[8] = tested on: S. pneumoniae ATCC 49619; test: MIC against S. pneumoniae ATCC 49619
[9] = tested on: S. aureus MP-549 msr(a) USA 300; test: MIC against S. aureus MP-549 msr(a) USA 300
[10] = tested on: E. coli MP-9 ΔTolC; test: MIC against E. coli MP-9 ΔTolC
[11] = tested on: S. aureus BAA 977 iErmA; test: MIC against S. aureus BAA 977 iErmA; conditions: Staphylococcus aureus, BAA977
[12] = tested on: C. difficile BAA 1805; test: MIC against C. difficile BAA 1805; conditions: Clostridioides difficile, BAA1805
[13] = Enterococcus faecalis, ATCC29212, E. faecalis ATCC 29212, read-out: MIC
[14] = Staphylococcus aureus, ATCC29213, S. aureus ATCC 29213, read-out: MIC
[15] = Escherichia coli, ATCC25922, read-out: MIC
[16] = Haemophilus influenzae, ATCC49247, H. influenzae ATCC 49247, read-out: MIC
[17] = Klebsiella pneumoniae, ATCC10031, read-out: MIC
[18] = Streptococcus pyogenes, ATCC19615, S. pyogenes ATCC 19615, read-out: MIC
[19] = Streptococcus pneumoniae, ATCC49619, S. pneumoniae ATCC 49619, read-out: MIC
[20] = Staphylococcus aureus, USA300, S. aureus MP-549 msr(a) USA 300
[21] = S. aureus MP-549 msr(a) USA 300

| Compound | MIC [1, 13] [µg/mL] | MIC [2, 14] [µg/mL] | MIC [3, 15] [µg/mL] | MIC [4, 16] [µg/mL] | MIC ([5]; Escherichia coli) [µg/mL] | MIC [6, 17] [µg/mL] | MIC [7, 18] [µg/mL] | MIC [8, 19] [µg/mL] | MIC [9, 20] [µg/mL] | MIC ([10]; Escherichia coli) [µg/mL] | MIC [11] [µg/mL] | also measured |
| --- | --- | --- | --- | --- | --- | --- | --- | --- | --- | --- | --- | --- |
| CCC[C@@H]1C[C@@H](C(=O)N[C@H]([C@@H]2CCCC2N)[C@H]2OC(SC)[C@H](O)C(O)C2O)N(C)C1 (some centres unmarked) [FSA-217045a] | > 64 | > 64 | > 64 | > 64 | > 64 | > 64 | > 64 | 64 (≈ 144 µM) | > 64 | > 64 | – | – |
| CCC[C@@H]1C[C@@H](C(=O)N[C@H]([C@H](C)NC(=O)CN(C)C)[C@H]2OC(SC)[C@H](O)C(O)C2O)N(C)C1 (some centres unmarked) [FSA-215078b] | > 64 | > 64 | > 64 | > 64 | > 64 | > 64 | 8 (≈ 16.3 µM) | 8 (≈ 16.3 µM) | > 64 | > 64 | > 64 | MIC [12]: > 64 µg/mL |
| CCC[C@@H]1C[C@@H](C(=O)N[C@@H]([C@H]2OC(SC)[C@H](O)C(O)C2O)[C@H](C)n2cc(CN)nn2)N(C)C1 (some centres unmarked) [FSA-215072] | > 64 | > 64 | > 64 | – | > 64 | > 64 | 8 (≈ 16.4 µM) | 8 (≈ 16.4 µM) | – | > 64 | > 64 | – |
| CCC[C@@H]1C[C@@H](C(=O)N[C@H](CN)[C@H]2OC(SC)[C@H](O)C(O)C2O)N(C)C1 (some centres unmarked) [FSA-215077] | > 64 | > 64 | > 64 | > 64 | > 64 | > 64 | > 64 | > 64 | > 64 | > 64 | > 64 | – |
| C#C[C@@H](NC(=O)[C@@H]1C[C@@H](CCC)CN1C)[C@H]1OC(SC)[C@H](O)C(O)C1O (some centres unmarked) [FSA-217031] | 64 (≈ 166 µM) | 64 (≈ 166 µM) | > 64 | > 64 | > 64 | > 64 | 8 (≈ 20.7 µM) | 4 (≈ 10.3 µM) | 32 (≈ 82.8 µM) | > 64 | – | – |
| CCC[C@@H]1C[C@@H](C(=O)N[C@H]([C@H](C)NC2CC2)[C@H]2OC(SC)[C@H](O)C(O)C2O)N(C)C1 (some centres unmarked) [FSA-215028c] | > 64 | 64 (≈ 144 µM) | > 64 | – | – | > 64 | 8 (≈ 18 µM) | 16 (≈ 35.9 µM) | – | > 64 | 32 (≈ 71.8 µM) | – |
| CCC[C@@H]1C[C@@H](C(=O)N[C@H]([C@H](C)N=[N+]=[N-])[C@H]2OC(SC)[C@H](O)C(O)C2O)N(C)C1 (stereo partly drawn) [FSA-215038, 7-(S)-deoxyazidolincomycin] | 32 (≈ 74.1 µM) | 0.25 (≈ 0.579 µM) | > 64 | – | – | > 64 | 0.125 (≈ 0.29 µM) | 0.25 (≈ 0.579 µM) | – | > 64 | 0.5 (≈ 1.16 µM) | – |
| CCC[C@@H]1C[C@@H](C(=O)N[C@H]([C@H](C)NC(=O)CCN)[C@H]2OC(SC)[C@H](O)C(O)C2O)N(C)C1 (some centres unmarked) [FSA-215054] | > 64 | > 64 | > 64 | – | – | > 64 | 64 (≈ 134 µM) | > 64 | – | > 64 | > 64 | – |
| CCC[C@@H]1C[C@@H](C(=O)N[C@@H]([C@H]2OC(SC)[C@H](O)C(O)C2O)C(C)(C)C(C)N=[N+]=[N-])N(C)C1 (single isomer, unassigned) [FSA-217021b] | – | – | – | – | – | – | – | – | – | – | – | MIC ([1]; E. faecalis ATCC 29212): 64 µg/mL (≈ 135 µM); MIC ([2]; S. aureus ATCC 29213): 0.25 µg/mL (≈ 0.528 µM); MIC [3]: >64 µg/mL; MIC ([4]; H. influenzae ATCC 49247): 32 µg/mL (≈ 67.6 µM); MIC [5]: 8 µg/mL (≈ 16.9 µM); MIC [6]: >64 µg/mL; MIC ([7]; S. pyogenes ATCC 19615): 0.12 µg/mL (≈ 0.253 µM); MIC ([8]; S. pneumoniae ATCC 49619): 0.12 µg/mL (≈ 0.253 µM); MIC [9, 21]: 0.25 µg/mL (≈ 0.528 µM); MIC [10]: 32 µg/mL (≈ 67.6 µM) |
| CCC[C@@H]1C[C@@H](C(=O)N[C@H]([C@@H]2CCCC2N)[C@H]2OC(SC)[C@H](O)C(O)C2O)N(C)C1 (some centres unmarked) [FSA-217045b] | – | – | – | – | – | – | – | – | – | – | – | MIC ([1]; E. faecalis ATCC 29212): >64 µg/mL; MIC ([2]; S. aureus ATCC 29213): >64 µg/mL; MIC [3]: >64 µg/mL; MIC ([4]; H. influenzae ATCC 49247): >64 µg/mL; MIC [5]: >64 µg/mL; MIC [6]: >64 µg/mL; MIC ([7]; S. pyogenes ATCC 19615): >64 µg/mL; MIC ([8]; S. pneumoniae ATCC 49619): 32 µg/mL (≈ 71.8 µM); MIC [9, 21]: >64 µg/mL; MIC [10]: >64 µg/mL |
| C=C[C@@H](NC(=O)[C@@H]1C[C@@H](CCC)CN1C)[C@H]1OC(SC)[C@H](O)C(O)C1O (some centres unmarked) [FSA-215031] | 32 (≈ 82.4 µM) | 8 (≈ 20.6 µM) | > 64 | – | – | > 64 | 2 (≈ 5.15 µM) | 2 (≈ 5.15 µM) | – | > 64 | 8 (≈ 20.6 µM) | – |
